Assay results reported in patent US20250346943A1, “DEGRADER COMPOUNDS OF QSOX1 mRNA” (UNIVERSITY OF FLORIDA RESEARCH FOUNDATION, INCORPORATED, priority 2022, published 2025).

Test system: human transcriptome
Test: Chem-CLIP-Map-Seq transcriptome-wide target profiling in live MDA-MB-231 cells
Type: cell-based
Settings: 20 μM, 16 h; for number of transcripts enriched (Chem-CLIP-seq): before excluding control probe overlap
Protocol: Additional studies were performed in live MDA-MB-231 cells to profile the cellular targets as well as the small molecule binding site within them, via Chem-CLIP-Map-Seq,^21 which had not previously been applied transcriptome-wide. After treatment (20 μM; 16 h) and cross-linking, total RNA was harvested and fragmented prior to pull-down (FIG. 2A). Random fragmentation was completed first to: 1) reduce sequence bias in library preparation, 2) reduce background signal in the RNA-seq analysis; and 3) allow for only the regions bound by the small molecules to be pulled down rather than the entire transcript, identifying both the target and the binding site within it. In parallel, a control diazirine probe that lacks an RNA-binding functionality (FIG. 2B) was used to identify targets that non-specifically react with the cross-linking moiety, where cross-linking is not driven by the RNA-binding elements.
Genrich uses a null model with a log-normal distribution to calculate p values by comparing sequencing runs of the same RNA sample before and after pull-down.
Chemical-Cross-linking and Isolation by Pull-down (Chem-CLIP) in Live Cells. MDA-MB-231 cells were seeded in 60 mm dishes and allowed to reach ˜80% confluency. The cells were then treated with 20 μM of compound in growth medium and incubated for 16 h. Cells were washed with 1×DPBS and irradiated with UV light for 10 min. Total RNA was harvested using a Zymo Quick-RNA Miniprep Kit per the manufacturer's protocol with DNase treatment. Total RNA was chemically fragmented by using an NEBNext Magnesium RNA Fragmentation Module (E6150S) per manufacturer's protocol to achieve final lengths between 100-150 nucleotides Pull-down of cross-linked RNAs was performed by adding 10 μg of total RNA to 100 μL of azide-disulfide agarose beads (Click Chemistry Tools, 1238-2) pre-washed with 25 mM HEPES, pH 7.0. The click reaction and pull-down were completed as described in “In Vitro Chemical-Crosslinking and Isolation by Pull-down (Chem-CLIP) with Fluorescently Labeled RNA”. The pulled down RNA was purified by RNA CleanXP beads (Beckman, A66514) per manufacturer's protocol.
RNA-seq Library Preparation and Data Analysis. The quality of the pulled down RNA was analyzed by using an Agilent 2100 Bioanalyzer RNA nanochip as well as to confirm fragment lengths. RNA concentration was quantified by Qubit 2.0 Fluorometer (Invitrogen). The input RNA (200 ng) was depleted of ribosomal RNA with NEBNext rRNA Depletion Module (E6310) according to manufacturer's recommendations. Library preparation was performed with NEBNext Ultra II Directional RNA kit (E7760) per manufacturer's protocols. Briefly, the rRNA-depleted samples were reverse transcribed with random hexamer primers to generate first strand cDNA, followed by second strand synthesis with dUTP instead of dTTP. The cDNA was end repaired and adenylated at their 3′ ends, followed by adaptor ligation. The strand information of the RNA was preserved by using USER enzyme (Uracil-specific excision reagent) to degrade the second strand. The cDNA was then PCR amplified with barcoded Illumina-compatible primers to generate the final libraries. These libraries were loaded into a NextSeq 500 v2.5 flow cell and sequenced with 2×40 bp paired-end chemistry. All fastq files were aligned to the human genome by STAR.^9 The output bam files were processed by Genrich (v0.6.1, available at https://github.com/jsh58/Genrich) for peak calling to identify regions of enrichment (p<0.001 and False Discovery Rate=1%). Fold enrichment was calculated by Deeptool^10 and visualized by IGV browser.^11 A minimum read count of 5 and a minimum fold enrichment of 1.5 were applied filter to filter out low-confidence peaks.

Row | SMILES | number of enriched transcripts also enriched by the control probe [transcripts] | share of enriched transcripts also enriched by the control probe [%] | number of transcripts enriched (Chem-CLIP-seq) [transcripts] | unique transcripts identified for the small molecule | number of transcripts enriched after eliminating transcripts also bound by the control diazirine
1 | C#CCCC1(CCC(=O)Nc2nc(-c3ccc(-n4cccn4)cc3)cs2)N=N1 [Compound F6] | 55 | 43 | 127 | – | –
2 | C#CCCC1(CCC(=O)N(CCNC(=O)c2ccc(C)c(F)c2)Cc2ccncc2)N=N1 [Compound F3] | 53 | 32 | 163 | – | –
3 | C#CCCC1(CCC(=O)N2CCN(c3nncc4sccc34)CC2)N=N1 [Compound F2] | 52 | 31 | 166 | 38 | –
4 | C#CCCC1(CCC(=O)Nc2nnc(SCc3ccc(F)c4cccnc34)n2C)N=N1 [Compound F5] | 57 | 62 | 92 | 3 | 35
